According to patent US12171230B2, “Herbicidal compositions” (Bayer Aktiengesellschaft, priority 2018, dated 2024):

What was measured:
Type in all cases: in vivo
Amaranthus palmeri = experiment: Post-emergence herbicidal action against Amaranthus palmeri; details: Amaranthus palmeri, post-emergence, 504 h, read-out: Herbicidal action 21 DAT [%] against Amaranthus palmeri
Method: (§1) When the observed efficacies exceed the formal sum total of the values of the tests with individual applications, they also exceed the expected value according to Colby, which is calculated using the formula below and is likewise regarded as an indication of synergism (cf. S. R. Colby; in Weeds 15 (1967) p. 20 to 22): E^C=A+B−([…])
(§2) Here: • A=efficacy of the active compound (A) in % at an application rate of a g a.i./ha; • B=efficacy of the active compound (B) in % at an application rate of b g a.i./ha; • E^C=expected value of the effect of the combination (A)+(B) in % at the combined application rate a+b g a.i./ha.
(§3) Seeds or rhizome pieces of mono- and dicotyledonous weeds are placed in sandy loam in pots, covered with soil and grown in a greenhouse under good growth conditions (temperature, air humidity, water supply). Three weeks after sowing, the test plants were treated at the three-leaf stage with the compositions according to the invention. The compositions according to the invention formulated as spray powders or as emulsion concentrates were sprayed onto the green plant parts in various dosages with an application rate of 300 to 800 l/ha of water (equivalent). After the test plants have been left to stand in the greenhouse under optimal growth conditions for about 3 to 4 weeks, the action of the preparations is scored visually in comparison to untreated controls. The compositions according to the invention also have good post-emergence herbicidal activity against a broad spectrum of economically important gramineous and broadleaf weeds.

Bidens pilosa = experiment: Post-emergence herbicidal action against Bidens pilosa; details: post-emergence, 21 DAT
Method: as §1, §2, §3

Pharbitis purpurea = experiment: Post-emergence herbicidal action against Pharbitis purpurea; details: post-emergence; 21 DAT; 5 g of a.i./ha
Method: as §1, §2, §3

Abutilon theophrasti = experiment: Post-emergence herbicidal action against Abutilon theophrasti
From the text: (§4) The following abbreviations are used in the description and the tables that follow: • g of a.i./ha=grams of active substance (active ingredient) (=100% active compound) per hectare; • The sum total of the effects of the individual applications is reported under E^A; • expected values according to Colby are each reported under E^C.
(§5) The rating period is reported in days after application (DAT).

Poa annua = experiment: Post-emergence herbicidal action against Poa annua; details: post-emergence
Method: as §1, §2, §3

Matricaria inodora = experiment: Post-emergence herbicidal action against Matricaria inodora; details: post-emergence, 14 DAT
Lolium rigidum = experiment: Post-emergence herbicidal action against Lolium rigidum
From the text: as §4, §5

[1] = system: Lolium rigidum (resistant biotype); experiment: Post-emergence herbicidal action against Lolium rigidum (resistant biotype)
From the text: as §4, §5

Phalaris minor = experiment: Post-emergence herbicidal action against Phalaris minor
From the text: as §4, §5

Alopecurus myosuroides = experiment: Post-emergence herbicidal action against Alopecurus myosuroides
From the text: as §4, §5

Bromus sterilis = experiment: Post-emergence herbicidal action against Bromus sterilis
From the text: as §4, §5

Veronica hederifolia = experiment: Post-emergence herbicidal action against Veronica hederifolia
From the text: as §4, §5

For C[n+]1ccc(-c2cc[n+](C)cc2)cc1 [(B5.37) Paraquat], the pest or weed control at 5 g/ha (Amaranthus palmeri) was 0%, the pest or weed control at 45 g/ha (Amaranthus palmeri) was 10% and the “Herbicidal action 21 DAT [%] against Bidens pilosa” value (Bidens pilosa; 5 g of a.i./ha) was 0%. For the same molecule, the “Herbicidal action 21 DAT [%] against Bidens pilosa” value (Bidens pilosa; 45 g of a.i./ha) was 10%, the “Herbicidal action 21 DAT [%] against Pharbitis purpurea” value (Pharbitis purpurea) was 15% and the “Herbicidal action 21 DAT [%] against Abutilon theophrasti” value (Abutilon theophrasti; 5 g of a.i./ha) was 0%. For the same molecule, the “Herbicidal action 21 DAT [%] against Abutilon theophrasti” value (Abutilon theophrasti; 45 g of a.i./ha) was 10%.

For COc1c(Cl)ccc(-c2cc(N)c(Cl)c(C(=O)O)n2)c1F [(B5.31) Halauxifen], the “Herbicidal action in [%] 14 DAT against Poa annua L.” value (Poa annua; 1 g of a.i./ha) was 0%, the “Herbicidal action in [%] 14 DAT against Poa annua L.” value (Poa annua; 3 g of a.i./ha) was 0% and the “Herbicidal action in [%] 14 DAT against Poa annua L.” value (Poa annua; 9 g of a.i./ha) was 5%. For the same molecule, the “Herbicidal action in [%] 28 DAT against Poa annua L.” value (Poa annua; 1 g of a.i./ha) was 0%, the “Herbicidal action in [%] 28 DAT against Poa annua L.” value (Poa annua; 3 g of a.i./ha) was 0% and the “Herbicidal action in [%] 28 DAT against Poa annua L.” value (Poa annua; 9 g of a.i./ha) was 0%. The “Herbicidal action in [%] 14 DAT against Matricaria inodora” value (Matricaria inodora; 1 g of a.i./ha) was 30%, the “Herbicidal action in [%] 14 DAT against Matricaria inodora” value (Matricaria inodora; 3 g of a.i./ha) was 40% and the “Herbicidal action in [%] 14 DAT against Matricaria inodora” value (Matricaria inodora; 9 g of a.i./ha) was 60%. For the same molecule, the “Herbicidal action in [%] 14 DAT against Lolium rigidum” value (Lolium rigidum; 1 g of a.i./ha) was 0%, the “Herbicidal action in [%] 14 DAT against Lolium rigidum” value (Lolium rigidum; 3 g of a.i./ha) was 0% and the “Herbicidal action in [%] 14 DAT against Lolium rigidum” value (Lolium rigidum; 9 g of a.i./ha) was 5%. For the same molecule, the “Herbicidal action in [%] 28 DAT against Lolium rigidum” value (Lolium rigidum; 1 g of a.i./ha) was 0%, the “Herbicidal action in [%] 28 DAT against Lolium rigidum” value (Lolium rigidum; 3 g of a.i./ha) was 0% and the “Herbicidal action in [%] 28 DAT against Lolium rigidum” value (Lolium rigidum; 9 g of a.i./ha) was 0%. The “Herbicidal action in [%] 14 DAT against Lolium rigidum (resistant biotype)” value ([1]; 1 g of a.i./ha) was 0%, the “Herbicidal action in [%] 14 DAT against Lolium rigidum (resistant biotype)” value ([1]; 3 g of a.i./ha) was 0% and the “Herbicidal action in [%] 14 DAT against Lolium rigidum (resistant biotype)” value ([1]; 9 g of a.i./ha) was 5%. The “Herbicidal action in [%] 28 DAT against Lolium rigidum (resistant biotype)” value ([1]; 1 g of a.i./ha) was 0%, the “Herbicidal action in [%] 28 DAT against Lolium rigidum (resistant biotype)” value ([1]; 3 g of a.i./ha) was 0% and the “Herbicidal action in [%] 28 DAT against Lolium rigidum (resistant biotype)” value ([1]; 9 g of a.i./ha) was 10%. The “Herbicidal action in [%] 14 DAT against Phalaris minor” value (Phalaris minor; 1 g of a.i./ha) was 0%, the “Herbicidal action in [%] 14 DAT against Phalaris minor” value (Phalaris minor; 3 g of a.i./ha) was 0% and the “Herbicidal action in [%] 14 DAT against Phalaris minor” value (Phalaris minor; 9 g of a.i./ha) was 5%. For the same molecule, the “Herbicidal action in [%] 28 DAT against Phalaris minor” value (Phalaris minor; 1 g of a.i./ha) was 0%, the “Herbicidal action in [%] 28 DAT against Phalaris minor” value (Phalaris minor; 3 g of a.i./ha) was 0% and the “Herbicidal action in [%] 28 DAT against Phalaris minor” value (Phalaris minor; 9 g of a.i./ha) was 5%. For the same molecule, the “Herbicidal action in [%] 14 DAT against Alopecurus myosuroides” value (Alopecurus myosuroides; 1 g of a.i./ha) was 0%, the “Herbicidal action in [%] 14 DAT against Alopecurus myosuroides” value (Alopecurus myosuroides; 3 g of a.i./ha) was 0% and the “Herbicidal action in [%] 14 DAT against Alopecurus myosuroides” value (Alopecurus myosuroides; 9 g of a.i./ha) was 5%. The “Herbicidal action in [%] 28 DAT against Alopecurus myosuroides” value (Alopecurus myosuroides; 1 g of a.i./ha) was 0%, the “Herbicidal action in [%] 28 DAT against Alopecurus myosuroides” value (Alopecurus myosuroides; 3 g of a.i./ha) was 0% and the “Herbicidal action in [%] 28 DAT against Alopecurus myosuroides” value (Alopecurus myosuroides; 9 g of a.i./ha) was 0%. For the same molecule, the “Herbicidal action in [%] 14 DAT against Bromus sterilis” value (Bromus sterilis; 1 g of a.i./ha) was 0%, the “Herbicidal action in [%] 14 DAT against Bromus sterilis” value (Bromus sterilis; 3 g of a.i./ha) was 10% and the “Herbicidal action in [%] 14 DAT against Bromus sterilis” value (Bromus sterilis; 9 g of a.i./ha) was 30%. The “Herbicidal action in [%] 28 DAT against Bromus sterilis” value (Bromus sterilis; 1 g of a.i./ha) was 0%, the “Herbicidal action in [%] 28 DAT against Bromus sterilis” value (Bromus sterilis; 3 g of a.i./ha) was 0% and the “Herbicidal action in [%] 28 DAT against Bromus sterilis” value (Bromus sterilis; 9 g of a.i./ha) was 20%. The “Herbicidal action in [%] 14 DAT against Veronica hederifolia” value (Veronica hederifolia; 3 g of a.i./ha) was 60% and the “Herbicidal action in [%] 14 DAT against Veronica hederifolia” value (Veronica hederifolia; 9 g of a.i./ha) was 60%.
